Laboratory results: EPA's ToxRefDB 2

What was measured:
mouse [1] = conditions: Sub-acute repeat dose toxicity, b6c3f1, Oral, Feed, dose end: 28 day, group: systemic
rat [2] = conditions: Combined chronic toxicity/carcinogenicity; sprague dawley; Oral; Feed; dose end: 2 year; group: systemic; systemic / in life observation / body weight / body weight + systemic / in life observation / body weight / body weight gain + systemic / in…
rat [3] = conditions: Prenatal developmental toxicity study, sprague dawley, Dermal, Topical, dose end: 15 GD
rat [4] = conditions: Sub-acute repeat dose toxicity; other; Oral; Feed; dose end: 28 day; group: systemic; systemic / clinical chemistry / glucose / glucose + systemic / in life observation / body weight / body weight + systemic / in life …
mouse [5] = conditions: Combined chronic toxicity/carcinogenicity, b6c3f1, Oral, Feed, dose end: 18 month, group: systemic
rat [6] = conditions: Prenatal developmental toxicity study, sprague dawley, Dermal, Topical, dose end: 15 GD, group: maternal
dog = conditions: Subchronic oral toxicity in nonrodent, beagle, Feed, dose end: 13 week, group: systemic
rat [7] = conditions: Neurotoxicity screening battery, other, Oral, Feed, dose end: 90 day, group: cannot be grouped
mouse [8] = conditions: Subchronic oral toxicity in rodents, b6c3f1, Feed, dose end: 90 day, group: systemic, systemic / organ weight / liver / absolute + systemic / organ weight / liver / relative to body weight + systemic / organ weight / liver / …
rat [9] = conditions: Prenatal developmental toxicity study, sprague dawley, Oral, Gavage/Intubation, dose end: 19 GD
rat [10] = conditions: Subchronic inhalation toxicity, sprague dawley, Nose-Only, dose end: 90 day, group: systemic, systemic / pathology microscopic / nose / degeneration + systemic / pathology microscopic / nose / hyperkeratosis + systemic / pathology …
rat [11] = conditions: Subchronic oral toxicity in rodents, sprague dawley, Feed, dose end: 13 week, group: systemic
rat [12] = conditions: Subchronic dermal toxicity, other, Topical, dose end: 90 day, group: systemic, systemic / pathology gross / skin / lesion(s) (nos)
rat [13] = conditions: Sub-acute dermal toxicity, Sprague-Dawley, Topical, dose end: 29 day, group: systemic, systemic / in life observation / clinical signs / anogenital staining
[14] = systemic / pathology microscopic / kidney / hypertrophy
[15] = systemic / pathology microscopic / kidney / hypertrophy + systemic / in life observation / mortality / mortality
[16] = group: developmental, developmental / developmental malformation / bone / absent + developmental / developmental malformation / bone / fused + developmental / …
[17] = group: maternal, reproductive / reproductive performance / resorptions / resorptions + systemic / in life observation / body weight / body weight gain + …
[18] = group: maternal, systemic / in life observation / clinical signs / desquamation
[19] = systemic / pathology microscopic / liver / hepatocellular adenoma + systemic / pathology microscopic / liver / hepatocellular carcinoma + …
[20] = reproductive / reproductive performance / aborted / aborted + reproductive / reproductive performance / resorptions / resorptions + systemic…
[21] = systemic / in life observation / clinical signs / desquamation + systemic / in life observation / clinical signs / urine, discoloration
[22] = systemic / hematology / platelet / platelet
[23] = systemic / hematology / platelet / platelet + systemic / in life observation / body weight / body weight gain + systemic / clinical …
[24] = systemic / in life observation / body weight / body weight + systemic / in life observation / body weight / body weight gain + systemic / in…
[25] = group: developmental, systemic / in life observation / body weight / fetal weight
[26] = group: developmental, systemic / in life observation / body weight / fetal weight + developmental / developmental malformation / bone / bipartite ossification + …
[27] = group: maternal, systemic / in life observation / clinical signs / salivation
[28] = group: maternal, systemic / in life observation / clinical signs / salivation + reproductive / reproductive performance / resorptions / resorptions + …
[29] = systemic / pathology microscopic / spinal cord / vacuolization + systemic / pathology microscopic / brain / vacuolization
[30] = systemic / pathology microscopic / spinal cord / vacuolization + systemic / pathology microscopic / brain / vacuolization + systemic / organ…

SMILES: CN1CCCC1=O [N-Methyl-2-pyrrolidone]
- LEL (mouse [1]; [14]): 2130 mg/kg/day
- LOAEL (mouse [1]; [14]): 2130 mg/kg/day
- NEL (mouse [1]; [15]): 720 mg/kg/day
- NOAEL (mouse [1]; [15]): 720 mg/kg/day
- LEL (rat [2]): 678 mg/kg/day
- LOAEL (rat [2]): > 678 mg/kg/day
- NEL (rat [2]): 207 mg/kg/day
- NOAEL (rat [2]): ≥ 678 mg/kg/day
- LEL (rat [3]; [16]): 750 mg/kg/day
- LOAEL (rat [3]; [16]): > 750 mg/kg/day
- NEL (rat [3]; [16]): 237 mg/kg/day
- NOAEL (rat [3]; [16]): ≥ 750 mg/kg/day
- LOAEL (rat [3]; [17]): > 750 mg/kg/day
- NOAEL (rat [3]; [17]): ≥ 750 mg/kg/day
- LEL (rat [3]; [18]): 75 mg/kg/day
- NEL (rat [3]; [18]): < 75 mg/kg/day
- LEL (rat [4]): 1230 mg/kg/day
- LOAEL (rat [4]): 1230 mg/kg/day
- NEL (rat [4]): 429 mg/kg/day
- NOAEL (rat [4]): 429 mg/kg/day
- LEL (mouse [5]; systemic / organ weight / liver / absolute + systemic / organ weight / liver / relative to body weight + systemic / pathology microscopic / …): 173 mg/kg/day
- LOAEL (mouse [5]; [19]): > 1090 mg/kg/day
- NEL (mouse [5]; [19]): 89 mg/kg/day
- NOAEL (mouse [5]; [19]): ≥ 1090 mg/kg/day
- LOAEL (rat [6]; [20]): > 2500 mg/kg/day
- NOAEL (rat [6]; [20]): ≥ 2500 mg/kg/day
- LEL (rat [6]; [21]): 500 mg/kg/day
- NEL (rat [6]; [21]): < 500 mg/kg/day
- LEL (dog; [22]): 25 mg/kg/day
- NEL (dog; [22]): < 25 mg/kg/day
- LOAEL (dog; [23]): > 250 mg/kg/day
- NOAEL (dog; [23]): ≥ 250 mg/kg/day
- LOAEL (rat [7]; systemic / in life observation / body weight / body weight + systemic / in life observation / body weight / body weight gain): 433 mg/kg/day
- LEL (rat [7]; [24]): 433 mg/kg/day
- NEL (rat [7]; [24]): 169 mg/kg/day
- NOAEL (rat [7]; [24]): 169 mg/kg/day
- LEL (mouse [8]): 619 mg/kg/day
- LOAEL (mouse [8]): 619 mg/kg/day
- NEL (mouse [8]): 277 mg/kg/day
- NOAEL (mouse [8]): 277 mg/kg/day

SMILES: N#Cc1c(-c2ccc(Cl)cc2)[nH]c(C(F)(F)F)c1Br [Tralopyril]
- LEL (rat [9]; [25]): 10 mg/kg/day
- LOAEL (rat [9]; [25]): 10 mg/kg/day
- NEL (rat [9]; [26]): 5 mg/kg/day
- NOAEL (rat [9]; [26]): 5 mg/kg/day
- LEL (rat [9]; [27]): 10 mg/kg/day
- LOAEL (rat [9]; [27]): 10 mg/kg/day
- NEL (rat [9]; [28]): 5 mg/kg/day
- NOAEL (rat [9]; [28]): 5 mg/kg/day
- LEL (rat [10]): 1.4 ppm
- LOAEL (rat [10]): 1.4 ppm
- NEL (rat [10]): < 1.4 ppm
- NOAEL (rat [10]): < 1.4 ppm
- LOAEL (rat [11]; [29]): 6.3 mg/kg/day
- NOAEL (rat [11]; [29]): < 6.3 mg/kg/day
- LEL (rat [11]; [30]): 6.3 mg/kg/day
- NEL (rat [11]; [30]): < 6.3 mg/kg/day
- LEL (rat [12]): 300 mg/kg/day
- LOAEL (rat [12]): 300 mg/kg/day
- NEL (rat [12]): 100 mg/kg/day
- NOAEL (rat [12]): 100 mg/kg/day
- LEL (rat [13]): 1000 mg/kg/day
- LOAEL (rat [13]): > 1000 mg/kg/day
- NEL (rat [13]): 300 mg/kg/day
- NOAEL (rat [13]): ≥ 1000 mg/kg/day
